Test results published in patent US20120264231A1, “ASSAY FOR ORAI CALCIUM CHANNEL REGULATORS” (IMMUNE DISEASE INSTITUTE, INC., priority 2009, published 2012).

Experiment: Cameleon intravesicular Ca^2+ assay, control vesicles
Type: biochemical, S cerevisiae
Details: ionomycin 20 μM
Experimental: In complementary measurements, vesicular Ca^2+ was monitored directly by coexpressing ORAI1 with the Ca^2+ sensor D3 cpV or D4 cpV53 fused to the α-mating factor secretion signal to target the sensor to the vesicles. Vesicles that had incorporated ORAI1 were isolated from sec6-4 yeast incubated at the restrictive temperature and were diluted into assay buffer.
S cerevisiae strain NY17 featuring the temperature-sensitive sec6-4 mutation was used for protein expression and purification of secretory vesicles as described (Nakamoto, R. K., et al., J Biol Chem 266, 7940-7949 (1991); Coury, L. A., et al., Methods Enzymol 306, 169-186 (1999)). Cells were grown to midlog phase at 25° C. in uracil-deficient synthetic complete medium containing glucose, which was subsequently exchanged for galactose to induce transgene expression over a period of 8 hours. The temperature was then switched to 37° C. for 3 hours to force intracellular accumulation of secretory vesicles. […] Myc-tagged ORAI1 was detected in Western blots using the murine anti-Myc monoclonal antibody 9E10.
Changes in intravesicular [Ca^2+] were monitored with the modified Ca^2+ sensors cameleon D3 cpV and D4 cpV53. […] Emission spectra were recorded from 450-560 nm with excitation set at 410 nm, with a 5-8 nm slitwidth for both excitation and emission, and corrected by subtracting the spectrum obtained with buffer alone. […]

With C[C@H](CCC(=O)O)C[C@H](C)C[C@H](C)C(=O)/C=C(\O)[C@H](C)C[C@H](C)C/C=C/[C@@H](C)[C@@H](O)[C@@H](C)[C@@H](O)C[C@@H]1CC[C@@](C)([C@H]2CC[C@@](C)([C@@H](C)O)O2)O1 [ionomycin, reference compound] the “Ca^2+ release from control vesicles (cameleon)” value was “effective in releasing Ca^2+”.
